# Experimental data reported in ChEMBL document CHEMBL4507310, “Data for DCP probe A-1211212” (2021).
# Assays:
# [1] = target: Serine/threonine-protein kinase D1 (Homo sapiens) (UniProt Q15139); conditions: Compound concentration 1000.0 nM
# [2] = target: Receptor-type tyrosine-protein kinase FLT3 (Homo sapiens) (UniProt P36888); conditions: Compound concentration 1000.0 nM
# [3] = target: Mitogen-activated protein kinase 1 (Homo sapiens) (UniProt P28482); conditions: Compound concentration 1000.0 nM
# [4] = system: Tyrosine-protein kinase ABL1 (Homo sapiens), P00519 [M351T]; conditions: Compound concentration 1000.0 nM
# [5] = target: LIM domain kinase 2 (Homo sapiens) (UniProt P53671); conditions: Compound concentration 1000.0 nM
# [6] = system: Hepatocyte growth factor receptor (Homo sapiens), P08581 [Y1235D]; conditions: Compound concentration 1000.0 nM
# [7] = target: Serine/threonine-protein kinase Nek7 (Homo sapiens) (UniProt Q8TDX7); conditions: Compound concentration 1000.0 nM
# [8] = target: Serine/threonine-protein kinase PAK 5 (Homo sapiens) (UniProt Q9P286); conditions: Compound concentration 1000.0 nM
# [9] = target: Estrogen receptor (Homo sapiens) (UniProt P03372); test: Estrogen ER alpha (h) Eurofins-Cerep binding assay; design: ligand concentration 0.5 nM; conditions: filed as agonist, Compound concentration 10.0 uM
# [10] = target: Tyrosine-protein kinase Lyn (Homo sapiens) (UniProt P07948); conditions: Compound concentration 1000.0 nM
# [11] = target: Ephrin type-B receptor 3 (Homo sapiens) (UniProt P54753); conditions: Compound concentration 1000.0 nM
# [12] = target: Cyclin-dependent kinase 5 (Homo sapiens) (UniProt Q00535); conditions: Compound concentration 1000.0 nM
# [13] = system: Tyrosine-protein kinase ABL1 (Homo sapiens), P00519 [Q252H]; conditions: Compound concentration 1000.0 nM
# [14] = target: Serine/threonine-protein kinase Nek6 (Homo sapiens) (UniProt Q9HC98); conditions: Compound concentration 1000.0 nM
# [15] = target: Sodium-dependent dopamine transporter (Homo sapiens, UniProt Q01959); test: dopamine transporter (h) Eurofins-Cerep binding assay; design: ligand concentration 4 nM; conditions: filed as antagonist, Compound concentration 10.0 uM
# [16] = system: Receptor-type tyrosine-protein kinase FLT3 (Homo sapiens), P36888 [UNDEFINED MUTATION]; conditions: Compound concentration 1000.0 nM
# [17] = target: Ribosomal protein S6 kinase alpha-5 (Homo sapiens) (UniProt O75582); conditions: Compound concentration 1000.0 nM
# [18] = target: Leukocyte tyrosine kinase receptor (Homo sapiens) (UniProt P29376); conditions: Compound concentration 1000.0 nM
# [19] = target: Casein kinase I isoform gamma-1 (Homo sapiens) (UniProt Q9HCP0); conditions: Compound concentration 1000.0 nM
# [20] = target: Inhibitor of nuclear factor kappa-B kinase subunit beta (Homo sapiens) (UniProt O14920); conditions: Compound concentration 1000.0 nM
# [21] = target: Myosin light chain kinase family member 4 (Homo sapiens) (UniProt Q86YV6); conditions: Compound concentration 1000.0 nM
# [22] = target: Histamine H2 receptor (Homo sapiens) (UniProt P25021); test: H2 (h) Eurofins-Cerep binding assay; design: ligand concentration 0.075 nM; conditions: filed as antagonist, Compound concentration 10.0 uM
# [23] = target: Mitogen-activated protein kinase kinase kinase 7 (Homo sapiens) (UniProt O43318); conditions: Compound concentration 1000.0 nM
# [24] = target: Serine/threonine-protein kinase 32A (Homo sapiens) (UniProt Q8WU08); conditions: Compound concentration 1000.0 nM
# [25] = target: Myosin light chain kinase (Homo sapiens) (UniProt Q32MK0); conditions: Compound concentration 1000.0 nM
# [26] = target: Calcium/calmodulin-dependent protein kinase type II subunit delta (Homo sapiens) (UniProt Q13557); conditions: Compound concentration 1000.0 nM
# [27] = target: Delta-type opioid receptor (Homo sapiens) (UniProt P41143); conditions: Compound concentration 10.0 uM
# [28] = system: Phosphatidylinositol 4,5-bisphosphate 3-kinase catalytic subunit alpha isoform (Homo sapiens), P42336 [Q546K]; conditions: Compound concentration 1000.0 nM
# [29] = target: Serine/threonine-protein kinase WNK3 (Homo sapiens) (UniProt Q9BYP7); conditions: Compound concentration 1000.0 nM
# [30] = target: Cyclin-dependent kinase 4 (Homo sapiens) (UniProt P11802); conditions: Compound concentration 1000.0 nM
# [31] = target: Phosphatidylinositol 4,5-bisphosphate 3-kinase catalytic subunit alpha isoform (Homo sapiens) (UniProt P42336); conditions: Compound concentration 1000.0 nM
# [32] = target: Serine/threonine-protein kinase PLK4 (Homo sapiens) (UniProt O00444); conditions: Compound concentration 1000.0 nM
# [33] = target: STE20/SPS1-related proline-alanine-rich protein kinase (Homo sapiens) (UniProt Q9UEW8); conditions: Compound concentration 1000.0 nM
# [34] = system: Tyrosine-protein kinase ABL1 (Homo sapiens), P00519 [T315I]; conditions: Compound concentration 1000.0 nM
# [35] = system: eIF-2-alpha kinase GCN2 (Homo sapiens), Q9P2K8 [S808G]; conditions: Compound concentration 1000.0 nM
# [36] = target: Mast/stem cell growth factor receptor Kit (Homo sapiens) (UniProt P10721); conditions: Compound concentration 1000.0 nM
# [37] = target: Tyrosine-protein kinase ITK/TSK (Homo sapiens) (UniProt Q08881); conditions: Compound concentration 1000.0 nM
# [38] = target: RAC-gamma serine/threonine-protein kinase (Homo sapiens) (UniProt Q9Y243); conditions: Compound concentration 1000.0 nM
# [39] = target: Sulfonylurea receptors; K-ATP channels (Rattus norvegicus) (UniProt Q63563+P70673+Q63664+Q09429); test: KATP channel Eurofins-Cerep binding assay; assay type: protein-complex assay; design: ligand concentration 0.1 nM; conditions: filed as antagonist, Compound concentration 10.0 uM
# [40] = target: 5-hydroxytryptamine receptor 2B (Homo sapiens) (UniProt P41595); conditions: Compound concentration 10.0 uM
# [41] = target: Misshapen-like kinase 1 (Homo sapiens) (UniProt Q8N4C8); conditions: Compound concentration 1000.0 nM
# [42] = target: Rhodopsin kinase GRK1 (Homo sapiens) (UniProt Q15835); conditions: Compound concentration 1000.0 nM
# [43] = system: Epidermal growth factor receptor (Homo sapiens), P00533 [T790M]; conditions: Compound concentration 1000.0 nM
# [44] = target: Cyclin-dependent kinase-like 2 (Homo sapiens) (UniProt Q92772); conditions: Compound concentration 1000.0 nM
# [45] = target: Serine/threonine-protein kinase DCLK1 (Homo sapiens) (UniProt O15075); conditions: Compound concentration 1000.0 nM
# Chain of Serine/threonine-protein kinase DCLK1 (Homo sapiens) (O15075 whole entry): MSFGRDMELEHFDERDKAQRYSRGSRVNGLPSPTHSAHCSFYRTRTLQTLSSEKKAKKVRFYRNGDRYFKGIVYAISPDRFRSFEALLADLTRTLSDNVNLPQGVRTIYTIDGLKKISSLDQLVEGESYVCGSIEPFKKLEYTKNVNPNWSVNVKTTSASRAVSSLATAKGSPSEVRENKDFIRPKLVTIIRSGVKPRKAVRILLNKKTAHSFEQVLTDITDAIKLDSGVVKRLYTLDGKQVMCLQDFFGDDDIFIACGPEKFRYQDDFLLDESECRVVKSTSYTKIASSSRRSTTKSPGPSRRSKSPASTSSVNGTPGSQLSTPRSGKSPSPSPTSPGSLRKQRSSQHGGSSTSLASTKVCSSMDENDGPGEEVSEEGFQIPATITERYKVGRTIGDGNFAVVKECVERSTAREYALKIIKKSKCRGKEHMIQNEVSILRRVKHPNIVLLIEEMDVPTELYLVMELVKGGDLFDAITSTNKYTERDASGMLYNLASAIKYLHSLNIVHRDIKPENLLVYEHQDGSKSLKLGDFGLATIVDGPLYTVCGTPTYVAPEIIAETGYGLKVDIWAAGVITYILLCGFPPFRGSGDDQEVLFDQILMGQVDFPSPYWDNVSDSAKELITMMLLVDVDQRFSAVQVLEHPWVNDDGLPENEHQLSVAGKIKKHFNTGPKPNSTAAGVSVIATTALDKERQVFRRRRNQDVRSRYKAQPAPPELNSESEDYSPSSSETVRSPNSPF
# Chain of Serine/threonine-protein kinase D1 (Homo sapiens) (Q15139 whole entry): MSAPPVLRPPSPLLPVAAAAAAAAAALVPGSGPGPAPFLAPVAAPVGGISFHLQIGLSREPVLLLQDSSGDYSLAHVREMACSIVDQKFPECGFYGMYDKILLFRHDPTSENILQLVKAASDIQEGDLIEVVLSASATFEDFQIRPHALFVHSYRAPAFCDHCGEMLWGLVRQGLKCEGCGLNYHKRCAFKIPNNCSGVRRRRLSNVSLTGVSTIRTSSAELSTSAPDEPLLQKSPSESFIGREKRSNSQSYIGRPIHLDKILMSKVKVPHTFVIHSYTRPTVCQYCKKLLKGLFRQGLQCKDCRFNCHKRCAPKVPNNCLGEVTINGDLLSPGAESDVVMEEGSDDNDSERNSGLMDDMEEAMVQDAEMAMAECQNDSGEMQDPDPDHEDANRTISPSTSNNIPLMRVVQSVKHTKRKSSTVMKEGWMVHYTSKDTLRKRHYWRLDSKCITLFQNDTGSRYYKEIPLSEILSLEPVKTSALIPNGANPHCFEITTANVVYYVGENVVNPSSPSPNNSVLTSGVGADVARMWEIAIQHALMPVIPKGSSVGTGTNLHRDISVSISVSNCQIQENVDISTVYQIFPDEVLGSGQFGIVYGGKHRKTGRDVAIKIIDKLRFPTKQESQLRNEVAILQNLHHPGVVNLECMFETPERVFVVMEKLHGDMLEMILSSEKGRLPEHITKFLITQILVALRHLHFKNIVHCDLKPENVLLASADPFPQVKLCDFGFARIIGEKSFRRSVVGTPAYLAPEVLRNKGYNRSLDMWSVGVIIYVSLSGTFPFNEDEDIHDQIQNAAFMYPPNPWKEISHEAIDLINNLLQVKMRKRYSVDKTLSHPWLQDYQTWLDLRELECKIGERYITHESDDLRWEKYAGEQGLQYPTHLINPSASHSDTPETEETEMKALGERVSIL
# Chain of Cyclin-dependent kinase-like 2 (Homo sapiens) (Q92772 whole entry): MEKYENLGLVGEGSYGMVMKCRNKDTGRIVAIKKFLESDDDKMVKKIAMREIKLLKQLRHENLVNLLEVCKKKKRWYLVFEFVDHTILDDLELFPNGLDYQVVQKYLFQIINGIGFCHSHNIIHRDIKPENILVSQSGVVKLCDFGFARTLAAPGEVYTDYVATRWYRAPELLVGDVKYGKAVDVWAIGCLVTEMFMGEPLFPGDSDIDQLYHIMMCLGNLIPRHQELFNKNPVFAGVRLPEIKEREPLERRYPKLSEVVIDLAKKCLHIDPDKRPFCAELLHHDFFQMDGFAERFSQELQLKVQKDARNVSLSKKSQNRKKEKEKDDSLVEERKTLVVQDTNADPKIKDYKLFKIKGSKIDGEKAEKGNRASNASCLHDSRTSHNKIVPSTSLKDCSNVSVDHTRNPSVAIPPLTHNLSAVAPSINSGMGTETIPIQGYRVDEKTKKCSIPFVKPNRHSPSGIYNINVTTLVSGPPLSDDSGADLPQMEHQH
# Chain of Delta-type opioid receptor (Homo sapiens) (P41143 whole entry, canonical isoform): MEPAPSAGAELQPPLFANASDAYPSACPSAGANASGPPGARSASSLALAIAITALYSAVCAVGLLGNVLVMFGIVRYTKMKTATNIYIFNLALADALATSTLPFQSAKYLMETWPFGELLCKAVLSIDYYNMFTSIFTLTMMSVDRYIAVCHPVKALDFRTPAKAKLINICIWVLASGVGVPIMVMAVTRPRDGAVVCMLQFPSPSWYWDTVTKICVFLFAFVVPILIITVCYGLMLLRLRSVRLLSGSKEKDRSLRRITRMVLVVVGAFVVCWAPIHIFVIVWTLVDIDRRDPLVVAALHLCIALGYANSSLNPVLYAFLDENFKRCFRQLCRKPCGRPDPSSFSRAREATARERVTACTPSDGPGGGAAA
# Chain of Serine/threonine-protein kinase PAK 5 (Homo sapiens) (Q9P286 whole entry, looked up): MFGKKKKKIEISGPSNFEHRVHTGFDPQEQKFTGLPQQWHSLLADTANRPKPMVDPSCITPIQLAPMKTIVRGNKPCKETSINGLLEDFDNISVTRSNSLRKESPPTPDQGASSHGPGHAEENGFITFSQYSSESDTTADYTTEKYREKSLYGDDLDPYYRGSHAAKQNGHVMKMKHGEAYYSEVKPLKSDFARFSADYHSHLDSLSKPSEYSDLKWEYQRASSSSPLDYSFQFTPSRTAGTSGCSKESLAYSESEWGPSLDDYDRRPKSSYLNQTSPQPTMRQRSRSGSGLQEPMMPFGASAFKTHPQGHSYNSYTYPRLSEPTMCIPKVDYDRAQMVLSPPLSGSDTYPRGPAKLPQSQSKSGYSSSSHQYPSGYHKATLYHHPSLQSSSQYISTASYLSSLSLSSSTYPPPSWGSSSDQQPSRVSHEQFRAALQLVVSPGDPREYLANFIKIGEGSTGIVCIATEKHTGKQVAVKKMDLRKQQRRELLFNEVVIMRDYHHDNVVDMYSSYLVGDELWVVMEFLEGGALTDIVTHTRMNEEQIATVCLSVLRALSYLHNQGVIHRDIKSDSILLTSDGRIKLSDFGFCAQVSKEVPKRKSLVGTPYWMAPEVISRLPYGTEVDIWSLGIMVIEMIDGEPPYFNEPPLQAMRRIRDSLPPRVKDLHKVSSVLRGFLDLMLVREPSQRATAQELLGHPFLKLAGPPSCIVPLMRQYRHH
# Chain of Sodium-dependent dopamine transporter (Q01959 whole entry): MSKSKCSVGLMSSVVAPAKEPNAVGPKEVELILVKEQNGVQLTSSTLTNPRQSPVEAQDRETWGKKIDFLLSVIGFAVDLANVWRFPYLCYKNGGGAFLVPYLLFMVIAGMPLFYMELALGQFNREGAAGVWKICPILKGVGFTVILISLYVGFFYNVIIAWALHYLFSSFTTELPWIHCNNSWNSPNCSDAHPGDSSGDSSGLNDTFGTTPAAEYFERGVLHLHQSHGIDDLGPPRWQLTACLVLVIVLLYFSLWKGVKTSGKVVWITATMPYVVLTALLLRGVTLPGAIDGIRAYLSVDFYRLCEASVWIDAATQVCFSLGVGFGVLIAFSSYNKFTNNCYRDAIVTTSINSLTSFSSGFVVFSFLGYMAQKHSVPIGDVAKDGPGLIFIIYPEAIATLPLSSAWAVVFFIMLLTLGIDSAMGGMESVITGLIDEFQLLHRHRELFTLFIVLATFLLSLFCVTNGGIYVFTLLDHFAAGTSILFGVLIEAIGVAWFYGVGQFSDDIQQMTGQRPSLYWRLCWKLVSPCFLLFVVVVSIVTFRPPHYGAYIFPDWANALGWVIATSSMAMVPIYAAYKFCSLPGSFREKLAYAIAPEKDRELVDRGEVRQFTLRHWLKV
# Chain of Cyclin-dependent kinase 5 (Homo sapiens) (Q00535 whole entry, looked up): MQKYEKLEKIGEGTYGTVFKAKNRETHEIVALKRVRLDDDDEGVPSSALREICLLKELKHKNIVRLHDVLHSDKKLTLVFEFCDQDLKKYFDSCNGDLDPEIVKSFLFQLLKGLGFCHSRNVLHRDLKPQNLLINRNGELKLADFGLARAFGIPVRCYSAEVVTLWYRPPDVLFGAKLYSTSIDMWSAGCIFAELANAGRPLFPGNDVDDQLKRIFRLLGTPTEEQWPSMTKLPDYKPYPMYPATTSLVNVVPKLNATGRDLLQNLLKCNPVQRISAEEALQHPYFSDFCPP
# Chain of Tyrosine-protein kinase Lyn (Homo sapiens) (P07948 2-512 limits assumed): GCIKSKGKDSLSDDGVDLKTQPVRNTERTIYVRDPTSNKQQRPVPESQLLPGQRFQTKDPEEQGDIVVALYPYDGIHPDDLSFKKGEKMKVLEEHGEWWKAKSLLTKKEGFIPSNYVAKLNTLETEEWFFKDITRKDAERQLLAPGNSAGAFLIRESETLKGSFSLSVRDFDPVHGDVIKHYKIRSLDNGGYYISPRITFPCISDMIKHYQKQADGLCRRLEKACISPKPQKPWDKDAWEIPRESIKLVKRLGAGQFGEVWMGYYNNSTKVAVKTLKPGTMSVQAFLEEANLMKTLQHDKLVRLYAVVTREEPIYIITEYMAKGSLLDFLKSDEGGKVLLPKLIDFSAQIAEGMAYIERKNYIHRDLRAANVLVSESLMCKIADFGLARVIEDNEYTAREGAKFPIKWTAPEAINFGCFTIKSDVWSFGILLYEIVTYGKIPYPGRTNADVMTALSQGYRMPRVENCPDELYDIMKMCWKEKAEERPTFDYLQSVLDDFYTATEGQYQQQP
# Chain of Mitogen-activated protein kinase 1 (Homo sapiens) (P28482 whole entry): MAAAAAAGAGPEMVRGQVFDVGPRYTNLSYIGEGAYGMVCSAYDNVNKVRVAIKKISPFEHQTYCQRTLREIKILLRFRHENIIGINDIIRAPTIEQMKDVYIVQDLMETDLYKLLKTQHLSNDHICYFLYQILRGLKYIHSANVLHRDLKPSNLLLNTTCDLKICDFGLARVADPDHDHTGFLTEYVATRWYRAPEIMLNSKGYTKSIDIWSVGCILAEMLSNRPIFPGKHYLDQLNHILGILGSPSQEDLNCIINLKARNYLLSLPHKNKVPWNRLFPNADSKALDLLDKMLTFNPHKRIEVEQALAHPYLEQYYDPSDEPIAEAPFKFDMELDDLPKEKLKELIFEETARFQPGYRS
structure (smiles),measurement,setting,value
O=C(NS(=O)(=O)c1ccc(NCC2CCOCC2)c([N+](=O)[O-])c1)c1ccc(N2CCN(Cc3ccc(C(F)(F)F)cc3-c3ccc(Cl)cc3)CC2)cc1Oc1cnc2[nH]ccc2c1 [A-1210227],residual activity,[1],89%
same,residual activity,[2],80%
same,residual activity,[3],87%
same,residual activity,[4],100%
same,residual activity,[5],97%
same,residual activity,[6],98%
same,residual activity,[7],97%
same,residual activity,[8],95%
same,% Inhibition of Control Specific Binding (Mean n=2),[9],-7.6%
same,residual activity,[10],99%
same,residual activity,[11],100%
same,residual activity,[12],81%
same,residual activity,[13],100%
same,residual activity,[14],89%
same,% Inhibition of Control Specific Binding (Mean n=2),[15],2.2%
same,residual activity,[16],66%
same,residual activity,[17],95%
same,residual activity,[18],100%
same,residual activity,[19],95%
same,residual activity,[20],74%
same,residual activity,[21],100%
same,% Inhibition of Control Specific Binding (Mean n=2),[22],-948%
same,residual activity,[23],100%
same,residual activity,[24],99%
same,residual activity,[25],100%
same,residual activity,[26],100%
same,inhibition,[27],-3.92%
same,residual activity,[28],100%
same,residual activity,[29],100%
same,residual activity,[30],100%
same,residual activity,[31],69%
same,residual activity,[32],98%
same,residual activity,[33],89%
same,residual activity,[34],82%
same,residual activity,[35],85%
same,residual activity,[36],100%
same,residual activity,[37],100%
same,residual activity,[38],89%
same,% Inhibition of Control Specific Binding (Mean n=2),[39],9.9%
same,inhibition,[40],-2.34%
same,residual activity,[41],84%
same,residual activity,[42],100%
same,residual activity,[43],98%
same,residual activity,[44],100%
same,residual activity,[45],100%
CO[C@H]1CC[C@H](CNc2ccc(S(=O)(=O)NC(=O)c3ccc(N4CCN(CC5=C(c6ccc(Cl)cc6)CC(C)(C)CC5)CC4)cc3Oc3cnc4[nH]ccc4c3)cc2[N+](=O)[O-])CC1 [A-1211212],residual activity,[1],76%
same,residual activity,[2],100%
same,residual activity,[3],84%
same,residual activity,[4],85%
same,residual activity,[5],80%
same,residual activity,[6],92%
same,residual activity,[7],82%
same,residual activity,[8],99%
same,% Inhibition of Control Specific Binding,[9],1.9%
same,residual activity,[10],74%
same,residual activity,[11],94%
same,residual activity,[12],82%
same,residual activity,[13],81%
same,residual activity,[14],89%
same,% Inhibition of Control Specific Binding (Mean n=2),[15],29.7%
same,residual activity,[16],88%
same,residual activity,[17],90%
same,residual activity,[18],100%
same,residual activity,[19],100%
same,residual activity,[20],100%
same,residual activity,[21],98%
same,% Inhibition of Control Specific Binding (Mean n=2),[22],-22%
same,residual activity,[23],100%
same,residual activity,[24],99%
same,residual activity,[25],100%
same,residual activity,[26],96%
same,inhibition,[27],5.68%
same,residual activity,[28],100%
same,residual activity,[29],100%
same,residual activity,[30],100%
same,residual activity,[31],77%
same,residual activity,[32],100%
same,residual activity,[33],100%
same,residual activity,[34],100%
same,residual activity,[35],96%
same,residual activity,[36],91%
same,residual activity,[37],87%
same,residual activity,[38],100%
same,% Inhibition of Control Specific Binding (Mean n=2),[39],9.7%
same,inhibition,[40],3.54%
same,residual activity,[41],88%
same,residual activity,[42],72%
same,residual activity,[43],98%
same,residual activity,[44],100%
same,residual activity,[45],100%
